According to patent publication US7728040B1, “Polyamine conjugates as selective NMDA inhibitors and anti-cancer drugs” (University of Central Florids Research Foundation, Inc., priority 2002, dated 2010):
Counter-ions that a name gives are not always drawn.

Assays:
L1210 cells = assay: Cytotoxicity in L1210 cells; assay type: cell-based; conditions: Mus musculus; L1210 cells, no DFMO; read-out: L1210 IC50
L1210 cells + DFMO = assay: Cytotoxicity in L1210 cells pretreated with DFMO; assay type: cell-based, mouse; conditions: for IC50: Mus musculus, L1210 cells pretreated with DFMO, read-out: L1210 + DFMO IC50; for L1210/(L1210 + DFMO) IC50 ratio: fold more toxic in the presence of DFMO
polyamine transporter = assay: Ki, affinity for the polyamine transporter in L1210 cells; assay type: binding, mouse
Method: Biological Evaluation. Three cell lines were chosen for bioassay. L1210 (mouse leukemia) cells were selected for comparison with the published IC50 and Ki values determined for a variety of polyamine substrates. In this regard both Ki and IC50 values were measured in this line for comparison purposes. Chinese hamster ovary (CHO) cells were chosen along with a mutant cell line (CHO-MG) in order to comment on polyamine transporter affinity and cell selectivity. The CHO-MG cell line is polyamine-transport deficient and was isolated after chronic selection for growth resistance to methylglyoxalbis (guanylhydrazone). For the purposes of this study, the CHO-MG cell line represents cells with limited polyamine transport activity. In contrast, the parent CHO cell line illustrates cell types with active polyamine transport. Comparison of efficacy in these two lines provided an important screen to detect conjugate delivery via the polyamine transporter, PAT. For example, a conjugate with high utilization of the transporter would be very toxic to CHO cells, but less so to CHO-MG cells. Therefore, IC50 determination in these two CHO lines provided a relative ranking of delivery via the PAT.

CHO-MG cells = assay: Cytotoxicity in CHO-MG cells (polyamine-transport deficient); assay type: cell-based, Chinese hamster; conditions: Cricetulus griseus, polyamine-transport deficient line, read-out: CHO-MG IC50
CHO cells = assay: Cytotoxicity in CHO cells (active polyamine transporter); assay type: cell-based, Chinese hamster; conditions: for IC50: Cricetulus griseus, CHO, active polyamine transporter, read-out: CHO IC50; for CHO-MG/CHO IC50 ratio: selectivity for cells with active polyamine transporter

| SMILES | IC50 (L1210 cells) | IC50 (L1210 cells + DFMO) | L1210/(L1210 + DFMO) IC50 ratio (L1210 cells + DFMO) | Ki (polyamine transporter) | IC50 (CHO-MG cells) | IC50 (CHO cells) | CHO-MG/CHO IC50 ratio (CHO cells) |
| --- | --- | --- | --- | --- | --- | --- | --- |
| Cl.Cl.Cl.NCCCN(CCCN)Cc1c2ccccc2cc2ccccc12 [Compound 8b, N-(3-Amino-propyl)-N-anthracen-9-ylmethyl-propane-1,3-diamine, trihydrochloride] | 1.8 µM | 1.4 µM | 1.3 | 33.4 µM | 3.4 µM | 1.9 µM | 1.8 |
| Cl.Cl.Cl.NCCCCNCCCNCc1c2ccccc2cc2ccccc12 [Compound 8c, N^1-{3-[(Anthracen-9-ylmethyl)-amino]-propyl}-butane-1,4-diamine, trihydrochloride] | 0.7 µM | 0.3 µM | 2.3 | 2.5 µM | 8.8 µM | 2.5 µM | 3.5 |
| Cl.Cl.Cl.NCCCCN(CCCN)Cc1c2ccccc2cc2ccccc12 [Compound 8d, N-(3-Amino-propyl)-N-anthracen-9-ylmethyl-butane-1,4-diamine, trihydrochloride] | 0.4 µM | 0.2 µM | 2 | 6.2 µM | 9.5 µM | 0.4 µM | 24 |
| Cl.Cl.Cl.NCCCCCN(CCCN)Cc1c2ccccc2cc2ccccc12 [Compound 8f, N-(3-Amino-propyl)-N-anthracen-9-ylmethyl-pentane-1,5-diamine, trihydrochloride] | 1.3 µM | 0.7 µM | 1.9 | 5 µM | 10.1 µM | 4.1 µM | 2.5 |
| Cl.Cl.Cl.NCCCCCN(CCCCN)Cc1c2ccccc2cc2ccccc12 [Compound 8g, N-(4-Amino-butyl)-N-anthracen-9-ylmethyl-pentane-1,5-diamine, trihydrochloride] | 0.4 µM | 0.3 µM | 1.3 | 1.7 µM | 57.3 µM | 1.5 µM | 38 |
| NCCCCNCCCNCCCNCc1c2ccccc2cc2ccccc12 [Compound 13a, N^1-{3-[3-(Anthracen-9-ylmethyl)-amino]-propylamino}-butane-1,4-diamine Tetrahydrochloride] | 21.8 µM | 21.9 µM | 1 | 0.107 µM | 41.5 µM | 44 µM | 0.9 |
| Cl.Cl.Cl.Cl.NCCCCCN(CCCCN)CCCNCc1c2ccccc2cc2ccccc12 [Compound 13d, N-(4-Amino-butyl)-N-{3-[(anthracen-9-ylmethyl)-amino]-propyl}-pentane-1,5-diamine Tetrahydrochloride] | 10.7 µM | 7.2 µM | 1.5 | 0.09 µM | 41.7 µM | 35 µM | 1.2 |
| Cl.Cl.Cl.Cl.NCCCCN(CCCCNCCCN)Cc1c2ccccc2cc2ccccc12 [Compound 13e, N-[4-(3-Amino-propylamino)-butyl]-N-anthracen-9-ylmethyl-butane-1,4-diamine Tetrahydrochloride] | 4.3 µM | 0.6 µM | 7.2 | 0.074 µM | 2.8 µM | 4 µM | 0.7 |
| Cl.Cl.Cl.Cl.NCCCCNCCCCN(CCCCN)Cc1c2ccccc2cc2ccccc12 [Compound 13f, N-[4-(4-Amino-butylamino)-butyl]-N-anthracen-9-ylmethyl-butane-1,4-diamine Tetrahydrochloride] | 7.5 µM | 1.6 µM | 4.7 | 0.051 µM | 33.2 µM | 10.6 µM |  |
